{
  "source": "PubChem BioAssay AID1259409",
  "about": "(Chemical Carcinogenesis Research Information System (CCRIS), 2018)",
  "origin": "cited, not measured here",
  "tested_on": "rodent chemically induced tumor inhibition, incidence and multiplicity",
  "test": "CCRIS tumor inhibitor studies",
  "details": "Dose [Inhibitor]: 0",
  "data": [
    {"smiles": "O=c1oc2c(O)c(O)cc3c(=O)oc4c(O)c(O)cc1c4c23", "values": [
      {"measurement": "tumour outcome (control, treated, inhibition, significance)", "setting": "Carcinogen: 4-(METHYLNITROSOAMINO-1-(PYRIDYL)-1-BUTANONE, 64091-91-4, 4 G/KG DIET BEGINNING 2 WK PRIOR TO CARCINOGEN DOSE (STUDY DURATION: 18 WK), Route [Inhibitor]: ORAL, Species: MOUSE, Strain/Sex: STRAIN-A/FEMALE, Target Tissue: Type of Lesion: LUNG: ADENOMA, Dose [Carcinogen]: 2 MG IN 0.2 ML OF 0.9% NACL ONCE, Promoter: NONE USED", "result": "100%, 100%, 0%, not significant"},
      {"measurement": "tumour outcome (control, treated, inhibition, significance)", "setting": "Carcinogen: 4-METHYLNITROSOAMINO-1-(PYRIDYL)-1-BUTANONE, 64091-91-4, 4 G/KG DIET BEGINNING 2 WK PRIOR TO CARCINOGEN DOSE AND CONTINUING FOR STUDY DURATION (STUDY DURATION: 18 WK), Route [Inhibitor]: ORAL, Species: MOUSE, Strain/Sex: STRAIN-A/FEMALE, Target Tissue: Type of Lesion: LUNG: ADENOMA, Dose [Carcinogen]: 62.4 UG/ML DRINKING WATER FOR 7 WK (TOTAL DOSE 9.4 MG), Promoter: NONE USED", "result": "100%, 96%, 4%, not calculated"},
      {"measurement": "tumour outcome (control, treated, inhibition, significance)", "setting": "Carcinogen: 4-NITROQUINOLINE-1-OXIDE, 56-57-5, 400 PPM IN DIET FOR 7 WK BEGINNING 1 WK PRIOR TO START OF CARCINOGEN TREATMENT (STUDY DURATION: 32 WK), Route [Inhibitor]: ORAL, Species: RAT, Strain/Sex: F344/MALE, Target Tissue: Type of Lesion: TONGUE: PAPILLOMA, Dose [Carcinogen]: 20 PPM IN DRINKING WATER FOR 5 WK, Promoter: NONE USED", "result": "1/15 (7%), 0/15 (0%), 100%, not significant"},
      {"measurement": "tumour outcome (control, treated, inhibition, significance)", "setting": "Carcinogen: 7,12-DIMETHYLBENZ[A]ANTHRACENE, 57-97-6', 1000 PPM IN DIET FOR DURATION OF STUDY BEGINNING CONCURRENTLY WITH CARCINOGEN TREATMENT (STUDY DURATION: 42 WK0, Route [Inhibitor]: ORAL, Species: FISH, Strain/Sex: RAINBOW TROUT/ MALE, FEMALE, Target Tissue: Type of Lesion: LIVER: TUMOR, Dose [Carcinogen]: 750 PPM IN DIET FOR 7 WK, Promoter: NONE USED", "result": "6%, 9%, -50%, not significant"},
      {"measurement": "tumour outcome (control, treated, inhibition, significance)", "setting": "Carcinogen: 7,12-DIMETHYLBENZ[A]ANTHRACENE, 57-97-6, 5 UMOL IN 0.4 ML ACETONE 20 MIN PRIOR TO EACH PROMOTER DOSE (STUDY DURATION: 47 WK), Route [Inhibitor]: DERMAL, Species: MOUSE, Strain/Sex: CF-1/FEMALE, Target Tissue: Type of Lesion: SKIN: CARCINOMA, Dose [Carcinogen]: 100 NMOL IN 0.2 ML ACETONE ONCE", "result": "67%, 17%, 75%, not calculated"},
      {"measurement": "tumour outcome (control, treated, inhibition, significance)", "setting": "Carcinogen: 7,12-DIMETHYLBENZ[A]ANTHRACENE, 57-97-6, 5 UMOL IN 0.4 ML ACETONE 20 MIN PRIOR TO EACH PROMOTER DOSE (STUDY DURATION: 47 WK), Route [Inhibitor]: DERMAL, Species: MOUSE, Strain/Sex: CF-1/FEMALE, Target Tissue: Type of Lesion: SKIN: PAPILLOMA, Dose [Carcinogen]: 100 NMOL IN 0.2 ML ACETONE ONCE", "result": "94%, 54%, 43%, not calculated"},
      {"measurement": "tumour outcome (control, treated, inhibition, significance)", "setting": "Carcinogen: 7,12-DIMETHYLBENZ[A]ANTHRACENE, 57-97-6, 100 PPM IN DIET FOR 19 WK BEGINNING POST CARCINOGEN TREATMENT (STUDY DURATION: 42 WK), Route [Inhibitor]: ORAL, Species: FISH, Strain/Sex: RAINBOW TROUT/ MALE, FEMALE, Target Tissue: Type of Lesion: STOMACH: TUMOR, Dose [Carcinogen]: 4.16 PPM IN WATER FOR 1 HR, Promoter: NONE USED", "result": "97%, 65%, 33%, p<0.001"},
      {"measurement": "tumour outcome (control, treated, inhibition, significance)", "setting": "Carcinogen: 7,12-DIMETHYLBENZ[A]ANTHRACENE, 57-97-6, 100 PPM IN DIET FOR 19 WK BEGINNING POST CARCINOGEN TREATMENT (STUDY DURATION: 42 WK), Route [Inhibitor]: ORAL, Species: FISH, Strain/Sex: RAINBOW TROUT/ MALE, FEMALE, Target Tissue: Type of Lesion: SWIM BLADDER: TUMOR, Dose [Carcinogen]: 4.16 PPM IN WATER FOR 1 HR, Promoter: NONE USED", "result": "14%, 14%, 0%, not significant"},
      {"measurement": "tumour outcome (control, treated, inhibition, significance)", "setting": "Carcinogen: 7,12-DIMETHYLBENZ[A]ANTHRACENE, 57-97-6, 250 PPM IN DIET FOR 19 WK BEGINNING POST CARCINOGEN TREATMENT (STUDY DURATION: 42 WK), Route [Inhibitor]: ORAL, Species: FISH, Strain/Sex: RAINBOW TROUT/ MALE, FEMALE, Target Tissue: Type of Lesion: LIVER: TUMOR, Dose [Carcinogen]: 4.16 PPM IN WATER FOR 1HR, Promoter: NONE USED", "result": "7%, 17%, -143%, p<0.001"},
      {"measurement": "tumour outcome (control, treated, inhibition, significance)", "setting": "Carcinogen: 7,12-DIMETHYLBENZ[A]ANTHRACENE, 57-97-6, 250 PPM IN DIET FOR 19 WK BEGINNING POST CARCINOGEN TREATMENT (STUDY DURATION: 42 WK), Route [Inhibitor]: ORAL, Species: FISH, Strain/Sex: RAINBOW TROUT/ MALE, FEMALE, Target Tissue: Type of Lesion: STOMACH: TUMOR, Promoter: NONE USED", "result": "97%, 39%, 60%, p<0.001"},
      {"measurement": "tumour outcome (control, treated, inhibition, significance)", "setting": "Carcinogen: 7,12-DIMETHYLBENZ[A]ANTHRACENE, 57-97-6, 250 PPM IN DIET FOR 19 WK BEGINNING POST CARCINOGEN TREATMENT (STUDY DURATION: 42 WK), Route [Inhibitor]: ORAL, Species: FISH, Strain/Sex: RAINBOW TROUT/MALE, FEMALE, Target Tissue: Type of Lesion: SWIM BLADDER: TUMOR, Dose [Carcinogen]: 4.16 PPM IN WATER FOR 1HR, Promoter: NONE USED", "result": "14%, 13%, 7%, not significant"},
      {"measurement": "tumour outcome (control, treated, inhibition, significance)", "setting": "Carcinogen: 7,12-DIMETHYLBENZ[A]ANTHRACENE, 57-97-6, 1000 PPM IN DIET FOR 17 WK BEGINNING POST CARCINOGEN TREATMENT (STUDY DURATION: 42 WK), Route [Inhibitor]: ORAL, Species: FISH, Strain/Sex: RAINBOW TROUT/ MALE, FEMALE, Target Tissue: Type of Lesion: STOMACH: TUMOR, Dose [Carcinogen]: 5.5 PPM IN WATER FOR 1 HR, Promoter: NONE USED", "result": "88%, 26%, 70%, p<0.001"}
    ]}
  ]
}
